Test results: ChEMBL document CHEMBL1201862, “PubChem BioAssay data set” (2004)
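Cells were grown in 96-well plates and exposed to each compound for 48 hours at five concentrations; endpoints were interpolated linearly between bracketing concentrations, or set to the highest concentration if not reached. Here, GI50 denotes the concentration required for 50% inhibition of growth.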 Activity calls are given as the source filed them. Cut-off read from the data, not from the text of the source: active = GI50 up to about 1.1 µM and inactive = higher.

Key:
Assay in all cases: growth of human tumour cells (NCI), 48 h
[1] = test system: UACC-62
[2] = test system: NCI-H522
[3] = test system: NCI-H23
[4] = test system: PC-3
[5] = test system: HOP-92
[6] = test system: SK-MEL-28
[7] = test system: SR
[8] = test system: SNB-75
[9] = test system: M14
[10] = test system: T47D
[11] = test system: SNB-19
[12] = test system: Hs-578T
[13] = test system: SK-MEL-2
[14] = test system: ACHN
[15] = test system: MCF7
[16] = test system: A498
[17] = test system: HL-60
[18] = test system: OVCAR-5
[19] = test system: DU-145
[20] = test system: CAKI-1

Measured: GI50

O=C1CCc2cc([N+](=O)[O-])ccc2O1
inactive: [1] > 100 µM | [2] > 100 µM | [3] > 100 µM | [4] > 100 µM | [5] > 100 µM | [6] > 100 µM | [7] > 100 µM | [8] > 100 µM | [9] > 100 µM | [10] > 100 µM | [11] > 100 µM | [12] > 100 µM | [13] > 100 µM | [14] > 100 µM | [15] > 100 µM | [16] > 100 µM | [17] > 100 µM | [18] > 100 µM | [19] > 100 µM | [20] > 100 µM

C#C[C@]1(O)CC[C@H]2[C@@H]3CCc4cc(OC(=O)c5cccc6cc7ccccc7nc56)ccc4[C@H]3CC[C@@]21C
inactive: [1] 28.5 µM | [2] 15.5 µM | [3] 40.3 µM | [4] 35.9 µM | [5] 66.5 µM | [6] 35.9 µM | [7] 5.52 µM | [8] 31.2 µM | [9] 31 µM | [10] 13.9 µM | [11] 50.7 µM | [12] 25.6 µM | [13] 29.2 µM | [14] 49 µM | [15] 25.2 µM | [16] > 100 µM | [17] 8.75 µM | [18] 43.8 µM | [19] 23.5 µM | [20] 23 µM

Cc1cc(C)c(S(=O)(=O)N(CCCN)OCCCON(CCCN)S(=O)(=O)c2c(C)cc(C)cc2C)c(C)c1
inactive: [1] 2.52 µM | [2] 1.47 µM | [3] 2.18 µM | [4] 1.82 µM | [5] 1.98 µM | [6] 1.91 µM | [7] 2.07 µM | [8] 1.86 µM | [9] 1.75 µM | [10] 1.61 µM | [11] 1.75 µM | [12] 1.49 µM | [13] 1.79 µM | [14] 15.3 µM | [15] 1.82 µM | [16] 3.38 µM | [17] 1.91 µM | [18] 2.2 µM | [19] 1.71 µM | [20] 14.2 µM
